By IC50 is commonly meant the concentration that gives 50% inhibition. A high value points to weaker potency in that assay.

In one test the target is DGKζ (Homo sapiens (Human), UniProt Q13574). The experiment in a line: Biochemical DGK IC50 assay (ADP-Glo, lipid micelle substrate), DGKζ. The conditions noted are these: full length DGKζ 0.5 nM, ATP 140 μM, DAG 80 μM. The essentials:
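Full-length human His-TEV-tagged DGKζ, expressed in Sf9 cells and purified, was run at room temperature on DAG/PS lipid micelles in 50 mM HEPES, 10 mM MgCl2, 0.01 mM CaCl2 buffer. After 1 h reaction, ADP formed was detected by ADP-Glo luminescence. IC50s came from inhibition across increasing compound concentrations.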
A general note: ADP-Glo first removes unused ATP, then detects ADP through luciferase.

The target of a further test is DGKα (Homo sapiens (Human), UniProt P23743). The test can be described thus: Biochemical DGK IC50 assay (ADP-Glo, lipid micelle substrate), DGKα. Note: full length DGKα 7.5 nM. Conditions: full length DGKα […], ATP 140 μM, DAG 80 μM. The essentials:
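Full-length human DGKα assayed by ADP-Glo with DAG/PS lipid micelle substrate at room temperature in 50 mM HEPES, 10 mM MgCl2, 0.01% BSA, 0.1 mM Na3VO4, 0.005% Tween-20, 0.01 mM CaCl2.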

Where only a bound is given, the exact number is not on record here.

Chain of DGKζ (Q13574 other isoform, or with tags, fused parts or gaps): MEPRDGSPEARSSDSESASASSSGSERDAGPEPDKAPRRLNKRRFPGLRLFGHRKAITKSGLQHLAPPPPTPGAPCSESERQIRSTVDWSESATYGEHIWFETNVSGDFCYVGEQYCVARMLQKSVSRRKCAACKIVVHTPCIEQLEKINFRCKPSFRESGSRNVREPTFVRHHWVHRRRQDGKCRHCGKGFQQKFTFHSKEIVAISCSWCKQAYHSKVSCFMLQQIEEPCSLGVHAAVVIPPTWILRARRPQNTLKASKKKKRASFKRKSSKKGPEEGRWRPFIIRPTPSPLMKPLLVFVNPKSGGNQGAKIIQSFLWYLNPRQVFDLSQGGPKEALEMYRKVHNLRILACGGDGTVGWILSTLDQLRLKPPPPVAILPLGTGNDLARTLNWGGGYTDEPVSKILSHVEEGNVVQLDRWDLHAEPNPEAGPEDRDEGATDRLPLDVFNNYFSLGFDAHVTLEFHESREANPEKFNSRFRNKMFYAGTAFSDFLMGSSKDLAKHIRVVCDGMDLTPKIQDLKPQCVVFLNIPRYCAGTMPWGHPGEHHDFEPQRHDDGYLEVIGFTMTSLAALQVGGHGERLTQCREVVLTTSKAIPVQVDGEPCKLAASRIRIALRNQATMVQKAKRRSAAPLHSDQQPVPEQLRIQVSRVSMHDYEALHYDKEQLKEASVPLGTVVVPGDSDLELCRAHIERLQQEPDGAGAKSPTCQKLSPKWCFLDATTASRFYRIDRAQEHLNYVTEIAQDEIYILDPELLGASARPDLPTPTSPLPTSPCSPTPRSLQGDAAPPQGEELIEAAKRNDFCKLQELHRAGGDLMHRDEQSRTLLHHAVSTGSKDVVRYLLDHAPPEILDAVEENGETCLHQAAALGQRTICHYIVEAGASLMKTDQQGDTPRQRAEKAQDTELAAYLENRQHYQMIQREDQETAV
Chain of DGKα (P23743 whole entry): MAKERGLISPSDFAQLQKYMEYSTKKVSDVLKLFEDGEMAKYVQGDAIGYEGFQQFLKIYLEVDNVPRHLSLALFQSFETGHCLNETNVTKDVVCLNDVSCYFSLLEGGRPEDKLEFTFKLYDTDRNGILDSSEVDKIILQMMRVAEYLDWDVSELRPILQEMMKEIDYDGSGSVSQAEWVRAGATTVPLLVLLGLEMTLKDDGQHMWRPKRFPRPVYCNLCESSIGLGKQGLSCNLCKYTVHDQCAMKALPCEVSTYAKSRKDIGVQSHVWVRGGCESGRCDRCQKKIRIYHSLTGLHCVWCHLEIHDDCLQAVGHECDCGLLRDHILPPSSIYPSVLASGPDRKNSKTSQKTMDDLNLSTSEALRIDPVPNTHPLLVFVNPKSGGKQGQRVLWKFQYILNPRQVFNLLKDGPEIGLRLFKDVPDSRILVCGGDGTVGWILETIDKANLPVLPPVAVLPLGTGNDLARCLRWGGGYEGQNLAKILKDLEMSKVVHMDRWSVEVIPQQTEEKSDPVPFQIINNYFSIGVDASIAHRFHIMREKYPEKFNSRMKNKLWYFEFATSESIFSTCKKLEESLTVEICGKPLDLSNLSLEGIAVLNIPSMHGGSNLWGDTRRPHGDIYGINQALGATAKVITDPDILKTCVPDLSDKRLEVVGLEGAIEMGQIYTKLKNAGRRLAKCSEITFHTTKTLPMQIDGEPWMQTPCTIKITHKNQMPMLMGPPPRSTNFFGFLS

Turning to `CC[C@H]1CN(C(C)c2ccc(OC)c(C)c2)[C@H](CC)CN1c1cc(=O)n(C)c2cn(CC#N)nc12` (stereo partly drawn) [Compound A9, 2-(7-((2S,5R)-2,5-diethyl-4-(1-(4-methoxy-3-methylphenyl)ethyl)piperazin-1-yl)-4-methyl-5-oxo-4,5-dihydro-2H-pyrazolo[4,3-b]pyridin-2-yl)acetonitrile], the IC50 turned out to be 339 nM at DGKζ and 2110 nM against DGKα.
The matching figures for `CC(c1ccc2c(c1)OC(C)(C)O2)N1C[C@H](C)N(c2cc(=O)n(C)c3cn(CC#N)nc23)C[C@H]1C` (stereo partly drawn) [Compound A70, 2-(7-((2S,5R)-4-(1-(2,2-dimethylbenzo[d][1,3]dioxol-5-yl)ethyl)-2,5-dimethylpiperazin-1-yl)-4-methyl-5-oxo-4,5-dihydro-2H-pyrazolo[4,3-b]pyridin-2-yl)acetonitrile]: 31 nM and 12400 nM.
Regarding `CC[C@@H]1CN(c2cc(=O)n(C)c3cn(CC#N)nc23)[C@@H](C)CN1[C@@H](C)c1ccn2nc(C)c(F)c2n1` (single isomer, unassigned) [Compound A173a], the figures for the IC50 on DGKζ and against DGKα were 19 nM and 168 nM, respectively.
The like results for `CC[C@@H]1CN(c2cc(=O)n(C)c3cn(CC#N)nc23)[C@@H](C)CN1C(C)c1ccc2ncsc2n1` (single isomer, unassigned) [Compound A100b] were, in that order, 2610 nM and 2890 nM.
The matching figures for `CC[C@H]1CN(C(C)c2ccn3nccc3c2)[C@H](CC)CN1c1nc(=O)n(C)c2cn(CC#N)nc12` (single isomer, unassigned) [Compound A159b]: 1120 nM and 40 nM.
The like results for `CCc1cn2nc(C(C)N3C[C@H](CC)N(c4cc(=O)n(C)c5cn(CC#N)nc45)C[C@H]3CC)ccc2n1` (single isomer, unassigned) [Compound A153b] were, in that order, 195 nM and 72 nM.
With `CC[C@H]1CN(C(C)c2ccc(CN3CCS(=O)(=O)CC3)cc2)[C@H](CC)CN1c1cc(=O)n(C)c2cn(CC#N)nc12` (stereo partly drawn) [Compound A192, 2-(7-((2S,5R)-4-(1-(4-((1,1-dioxidothiomorpholino)methyl)phenyl)ethyl)-2,5-diethylpiperazin-1-yl)-4-methyl-5-oxo-4,5-dihydro-2H-pyrazolo[4,3-b]pyridin-2-yl)acetonitrile], the IC50 against DGKζ came out at 579 nM; on DGKα it was 729 nM.
The like results for `[2H]C([2H])([2H])n1c(=O)cc(N2C[C@@H](CC)N(C(C)c3ccc4nc(C)sc4n3)C[C@@H]2CC)c2nn(CC#N)cc21` (single isomer, unassigned) [Compound A134a] were, in that order, 3920 nM and 3390 nM.
The like results for `CC#CCn1cc2c(n1)c(N1C[C@@H](CC)N(C(C)c3nc4ccccc4nc3C)C[C@@H]1C)cc(=O)n2C` (single isomer, unassigned) [Compound A111a] were, in that order, more than 10000 nM and 2540 nM.
The like results for `CC[C@H]1CN(C(C)c2ccc(CN3CCC(OC)CC3)cc2)[C@H](CC)CN1c1cc(=O)n(C)c2cn(CC#N)nc12` (single isomer, unassigned) [Compound A189a] were, in that order, 2190 nM and 1080 nM.
With `CC[C@H]1CN(C(C)c2ccc3ncsc3c2)[C@H](CC)CN1c1c(C#N)c(=O)n(C)c2cn(CC#N)nc12` (stereo partly drawn) [Compound A95, 7-((2S,5R)-4-(1-(benzo[d]thiazol-6-yl)ethyl)-2,5-diethylpiperazin-1-yl)-2-(cyanomethyl)-4-methyl-5-oxo-4,5-dihydro-2H-pyrazolo[4,3-b]pyridine-6-carbonitrile], the IC50 at DGKζ came out at 64 nM; against DGKα, 52 nM.
On to `CC[C@@H]1CN(c2cc(=O)n(C)c3cn(CC#N)nc23)[C@@H](C)CN1C(C)c1ccc2ccsc2n1` (some centres unmarked) [Compound A130], for which the IC50 was 46 nM against DGKζ and 215 nM against DGKα.
The like results for `CC[C@H]1CN(C(C)c2ccn3nccc3n2)[C@H](CC)CN1c1cc(=O)n(C)c2cn(CC#N)nc12` (single isomer, unassigned) [Compound A154a] were, in that order, more than 10000 nM and 505 nM.
